Data on seven compounds can be found in patent US12297194B2, “N2-phenylpyrimidine-2,4-diamine compounds, and preparation methods and methods of use thereof” (BRIDGE BIOTHERAPEUTICS, INC., priority 2021, dated 2025).

Holding throughout (type): cell-based, murine
In experiment [1] the target is Ba/F3 EGFR L858R/C797S mutants (Homo sapiens, UniProt P00533, C797S/L858R, cells depend on it). Briefly: CellTiter-Glo cell viability, Ba/F3 EGFR L858R/C797S cells. Particulars: 72 hours, read-out: Ba/F3 EGFR mutant cell (IC50, nM) L/C. The protocol:
(§1) In order to evaluate an inhibitory ability on wild-type Ba/F3 EGFR and Ba/F3 EGFR mutations in Ba/F3 cell lines by the compounds of Formula 1, the experiment was carried out as described below.
(§2) The measurement of activities on Ba/F3 cells harboring wild-type EGFR and EGFR mutants by the compounds of the present invention were determined utilizing the CELLTITER-GLO™ system from Promega, as follows. The CELLTITER-GLO™ assay is a method for measuring the ATP present in cells to determine the cell viability. Ba/F3 EGFR wild-type and Ba/F3 EGFR L858R/C797S (L/C), Ba/F3 EGFR L858R/T790M/C797S (L/T/C), Ba/F3 EGFR Del19/T790M (D/T), Ba/F3 EGFR Del19/C797S (D/C), Ba/F3 EGFR Del19/T790M/C797S (D/T/C) mutant cell lines were maintained in RPMI1640, containing […], 1% penicillin-streptomycin, […] puromycin. Cells were grown in a humidified incubator at 37° C. with […].
(§3) The analysis of an EGFR inhibitory activity by the compounds was carried out in accordance with the analysis reaction recipe below.
(§4) 2500 cells/90 μL were seeded in 96 well cell culture plate, and after 24 hours, treated with the compounds represented by Formula 1 in concentrations of 0, 0.3, 0.9, 2.7, 8.2, 24.7, 74.1, 222.2, 666.7, 2000 (nM). After the reaction of 72 hours, the plate was incubated for 30 minutes at ambient temperature, and then, was further treated with 100 μL of the CELLTITER-GLO™ reagent and was shaken for 10 minutes at ambient temperature. Finally, measurement of the luminescence values were obtained using the SPECTRAMAX™ iD3 (Molecular Devices), and the IC50 values of the compound were analyzed using the GraphPad Prism program (version 9.0.2, GraphPad Software, Inc.).
A general note: In ATP-based viability assays light output follows the ATP content of the culture.

A further experiment concerns the target Ba/F3 EGFR Wild-type (Homo sapiens, UniProt P00533). Briefly: CellTiter-Glo cell viability, Ba/F3 EGFR wild-type cells. Particulars: 72 hours, read-out: Ba/F3 EGFR mutant cell (IC50, nM) WT. The protocol: as §1, §2, §3, §4
Experiment [2] concerns the target Ba/F3 EGFR Del19/C797S mutants (Homo sapiens, UniProt P00533, C797S, cells depend on it, form not given). Briefly: CellTiter-Glo cell viability, Ba/F3 EGFR Del19/C797S cells. Particulars: 72 hours, read-out: Ba/F3 EGFR mutant cell (IC50, nM) D/C. The protocol:
as §1, §2, §3, §4

Experiment [3] addresses Ba/F3 EGFR Del19/T790M/C797S mutants (Homo sapiens, UniProt P00533, T790M/C797S, cells depend on it, form not given). Briefly: CellTiter-Glo cell viability, Ba/F3 EGFR Del19/T790M/C797S cells. Particulars: 72 hours, read-out: Ba/F3 EGFR mutant cell (IC50, nM) D/T/C. The protocol: as §1, §2, §3, §4
Experiment [4] deals with Ba/F3 EGFR Del19/T790M mutants (Homo sapiens, UniProt P00533, T790M, cells depend on it, form not given). In words: CellTiter-Glo cell viability, Ba/F3 EGFR Del19/T790M cells. Particulars: 72 hours, read-out: Ba/F3 EGFR mutant cell (IC50, nM) D/T. The protocol: as §1, §2, §3, §4
Experiment [5] addresses Ba/F3 EGFR L858R/T790M/C797S mutants (Homo sapiens, UniProt P00533, T790M/C797S/L858R, cells depend on it). In words: CellTiter-Glo cell viability, Ba/F3 EGFR L858R/T790M/C797S cells. Particulars: 72 hours, read-out: Ba/F3 EGFR mutant cell (IC50, nM) L/T/C. The protocol: as §1, §2, §3, §4

Sequence of Ba/F3 EGFR Del19/T790M/C797S mutants (P00533 with tags, fused parts or gaps DEL746-750/T790M/C797S, form open): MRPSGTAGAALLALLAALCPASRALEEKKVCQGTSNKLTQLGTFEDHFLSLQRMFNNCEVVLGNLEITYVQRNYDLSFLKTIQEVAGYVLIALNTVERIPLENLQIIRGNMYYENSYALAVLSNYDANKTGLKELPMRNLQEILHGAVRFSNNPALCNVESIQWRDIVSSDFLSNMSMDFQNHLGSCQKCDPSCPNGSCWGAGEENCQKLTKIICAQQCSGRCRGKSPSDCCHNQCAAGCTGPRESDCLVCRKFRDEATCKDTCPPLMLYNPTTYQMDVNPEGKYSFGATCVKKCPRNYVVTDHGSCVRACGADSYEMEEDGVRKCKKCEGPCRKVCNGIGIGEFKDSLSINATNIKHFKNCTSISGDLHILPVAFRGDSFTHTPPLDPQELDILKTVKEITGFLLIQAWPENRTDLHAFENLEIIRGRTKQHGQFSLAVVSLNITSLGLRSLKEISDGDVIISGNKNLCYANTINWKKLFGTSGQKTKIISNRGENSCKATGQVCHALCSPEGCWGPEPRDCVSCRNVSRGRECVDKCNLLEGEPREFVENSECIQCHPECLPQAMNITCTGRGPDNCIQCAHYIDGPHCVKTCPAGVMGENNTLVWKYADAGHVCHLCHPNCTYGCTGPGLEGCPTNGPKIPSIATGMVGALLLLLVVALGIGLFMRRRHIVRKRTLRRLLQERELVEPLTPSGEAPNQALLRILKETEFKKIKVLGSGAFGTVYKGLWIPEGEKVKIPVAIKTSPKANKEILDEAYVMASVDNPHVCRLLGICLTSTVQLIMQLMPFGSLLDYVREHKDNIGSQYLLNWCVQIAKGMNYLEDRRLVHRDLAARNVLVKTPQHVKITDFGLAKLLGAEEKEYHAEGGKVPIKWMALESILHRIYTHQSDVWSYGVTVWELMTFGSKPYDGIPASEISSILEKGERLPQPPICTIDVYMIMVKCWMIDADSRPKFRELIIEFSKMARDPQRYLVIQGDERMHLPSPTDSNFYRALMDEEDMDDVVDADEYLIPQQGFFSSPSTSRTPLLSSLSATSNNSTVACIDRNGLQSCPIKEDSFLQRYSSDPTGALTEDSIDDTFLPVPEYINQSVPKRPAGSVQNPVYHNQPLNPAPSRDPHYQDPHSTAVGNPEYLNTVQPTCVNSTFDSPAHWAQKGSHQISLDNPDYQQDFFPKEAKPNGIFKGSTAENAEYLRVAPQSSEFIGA
Sequence of Ba/F3 EGFR L858R/T790M/C797S mutants (P00533 whole entry T790M/C797S/L858R): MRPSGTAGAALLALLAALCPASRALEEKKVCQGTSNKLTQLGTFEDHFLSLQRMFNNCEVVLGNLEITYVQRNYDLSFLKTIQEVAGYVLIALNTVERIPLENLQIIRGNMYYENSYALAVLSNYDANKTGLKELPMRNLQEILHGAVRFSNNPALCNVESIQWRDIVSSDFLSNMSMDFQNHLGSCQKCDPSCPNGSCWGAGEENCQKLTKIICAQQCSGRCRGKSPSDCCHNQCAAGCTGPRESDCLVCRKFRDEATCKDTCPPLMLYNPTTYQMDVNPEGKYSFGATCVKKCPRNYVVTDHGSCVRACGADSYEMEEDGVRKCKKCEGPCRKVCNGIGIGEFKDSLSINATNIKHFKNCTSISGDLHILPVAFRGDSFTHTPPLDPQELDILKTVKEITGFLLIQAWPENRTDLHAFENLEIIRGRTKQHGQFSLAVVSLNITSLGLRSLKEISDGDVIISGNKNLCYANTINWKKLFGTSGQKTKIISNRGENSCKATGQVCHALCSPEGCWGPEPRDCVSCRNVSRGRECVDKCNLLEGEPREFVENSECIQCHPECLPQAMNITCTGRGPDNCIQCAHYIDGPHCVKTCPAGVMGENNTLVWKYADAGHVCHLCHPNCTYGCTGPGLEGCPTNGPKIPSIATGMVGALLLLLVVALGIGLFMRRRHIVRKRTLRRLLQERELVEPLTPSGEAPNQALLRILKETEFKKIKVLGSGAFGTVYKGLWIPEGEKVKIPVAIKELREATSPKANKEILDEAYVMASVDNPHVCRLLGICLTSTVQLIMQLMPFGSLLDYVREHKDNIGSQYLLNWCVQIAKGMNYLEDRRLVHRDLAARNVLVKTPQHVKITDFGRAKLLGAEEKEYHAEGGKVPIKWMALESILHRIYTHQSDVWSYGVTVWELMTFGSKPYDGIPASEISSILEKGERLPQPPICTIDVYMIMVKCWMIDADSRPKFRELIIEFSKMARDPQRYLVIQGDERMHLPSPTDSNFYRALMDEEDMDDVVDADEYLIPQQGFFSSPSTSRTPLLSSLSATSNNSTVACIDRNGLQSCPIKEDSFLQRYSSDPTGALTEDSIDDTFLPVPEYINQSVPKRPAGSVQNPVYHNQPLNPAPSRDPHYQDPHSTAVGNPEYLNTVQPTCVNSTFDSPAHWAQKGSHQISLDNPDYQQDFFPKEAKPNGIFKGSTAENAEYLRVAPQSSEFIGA
Sequence of Ba/F3 EGFR L858R/C797S mutants (P00533 whole entry C797S/L858R): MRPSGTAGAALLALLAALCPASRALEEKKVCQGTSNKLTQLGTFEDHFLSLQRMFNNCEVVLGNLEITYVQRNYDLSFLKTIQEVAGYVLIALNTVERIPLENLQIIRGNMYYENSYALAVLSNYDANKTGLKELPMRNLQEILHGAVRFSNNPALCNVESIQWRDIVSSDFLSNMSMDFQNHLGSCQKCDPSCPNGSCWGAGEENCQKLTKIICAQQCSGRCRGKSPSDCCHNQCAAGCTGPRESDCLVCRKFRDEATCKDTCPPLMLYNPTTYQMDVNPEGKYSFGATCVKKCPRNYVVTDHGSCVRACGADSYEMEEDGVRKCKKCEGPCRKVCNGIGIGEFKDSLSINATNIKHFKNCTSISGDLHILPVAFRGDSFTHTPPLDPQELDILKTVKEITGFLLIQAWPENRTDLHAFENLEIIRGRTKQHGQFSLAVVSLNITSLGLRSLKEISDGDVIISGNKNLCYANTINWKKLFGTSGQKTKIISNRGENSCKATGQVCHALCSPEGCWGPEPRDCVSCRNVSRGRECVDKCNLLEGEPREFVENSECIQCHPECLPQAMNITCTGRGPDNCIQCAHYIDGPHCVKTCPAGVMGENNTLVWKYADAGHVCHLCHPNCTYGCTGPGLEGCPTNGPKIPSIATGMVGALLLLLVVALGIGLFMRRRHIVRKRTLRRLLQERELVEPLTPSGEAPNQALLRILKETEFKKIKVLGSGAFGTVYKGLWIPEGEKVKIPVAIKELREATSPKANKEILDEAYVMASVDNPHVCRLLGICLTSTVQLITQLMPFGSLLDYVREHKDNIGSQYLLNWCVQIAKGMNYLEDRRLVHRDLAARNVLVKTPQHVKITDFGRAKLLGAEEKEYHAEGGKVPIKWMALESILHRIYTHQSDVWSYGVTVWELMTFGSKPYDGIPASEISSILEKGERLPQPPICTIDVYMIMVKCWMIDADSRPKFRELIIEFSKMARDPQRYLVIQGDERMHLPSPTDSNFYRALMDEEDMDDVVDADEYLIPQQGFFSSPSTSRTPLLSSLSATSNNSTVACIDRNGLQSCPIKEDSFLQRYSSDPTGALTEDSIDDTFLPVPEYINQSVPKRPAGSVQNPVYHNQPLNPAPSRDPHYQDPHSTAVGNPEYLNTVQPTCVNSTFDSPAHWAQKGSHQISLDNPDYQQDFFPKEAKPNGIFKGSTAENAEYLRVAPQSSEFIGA
Sequence of Ba/F3 EGFR Del19/T790M mutants (P00533 with tags, fused parts or gaps DEL746-750/T790M, form open): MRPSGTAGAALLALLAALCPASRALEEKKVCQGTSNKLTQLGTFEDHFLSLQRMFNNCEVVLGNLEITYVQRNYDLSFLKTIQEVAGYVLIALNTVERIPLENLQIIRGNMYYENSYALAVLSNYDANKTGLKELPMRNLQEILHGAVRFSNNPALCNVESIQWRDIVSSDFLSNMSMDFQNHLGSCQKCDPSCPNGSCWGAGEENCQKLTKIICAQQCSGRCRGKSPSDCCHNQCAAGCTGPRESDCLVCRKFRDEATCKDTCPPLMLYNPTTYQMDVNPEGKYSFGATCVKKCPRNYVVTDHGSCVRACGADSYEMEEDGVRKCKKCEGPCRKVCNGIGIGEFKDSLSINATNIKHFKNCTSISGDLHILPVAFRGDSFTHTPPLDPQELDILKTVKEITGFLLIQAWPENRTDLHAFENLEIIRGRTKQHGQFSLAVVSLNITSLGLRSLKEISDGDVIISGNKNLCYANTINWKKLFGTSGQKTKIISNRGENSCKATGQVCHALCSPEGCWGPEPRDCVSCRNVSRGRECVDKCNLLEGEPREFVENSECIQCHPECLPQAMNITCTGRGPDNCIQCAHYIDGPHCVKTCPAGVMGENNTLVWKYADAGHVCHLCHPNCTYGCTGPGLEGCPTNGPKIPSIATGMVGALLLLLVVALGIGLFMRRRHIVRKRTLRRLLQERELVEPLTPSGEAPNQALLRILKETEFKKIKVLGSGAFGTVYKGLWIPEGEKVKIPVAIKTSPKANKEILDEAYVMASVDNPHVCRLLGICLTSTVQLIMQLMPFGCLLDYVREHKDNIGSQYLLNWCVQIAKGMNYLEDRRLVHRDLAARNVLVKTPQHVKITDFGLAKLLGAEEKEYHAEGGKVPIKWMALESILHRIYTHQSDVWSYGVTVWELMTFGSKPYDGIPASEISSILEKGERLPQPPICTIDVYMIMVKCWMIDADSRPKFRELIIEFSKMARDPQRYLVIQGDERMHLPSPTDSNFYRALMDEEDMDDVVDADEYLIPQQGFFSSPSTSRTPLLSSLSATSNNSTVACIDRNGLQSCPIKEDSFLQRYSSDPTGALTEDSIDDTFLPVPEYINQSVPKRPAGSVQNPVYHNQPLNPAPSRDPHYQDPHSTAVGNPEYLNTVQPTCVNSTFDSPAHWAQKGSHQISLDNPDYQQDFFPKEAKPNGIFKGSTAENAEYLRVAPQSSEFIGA

For the compound `COc1cc(N2CCC(N3CCN(C)CC3)CC2)c(C)cc1Nc1ncc(C)c(Nc2ccc3nccnc3c2NS(C)(=O)=O)n1` [Example A21, N-(6-((2-((2-methoxy-5-methyl-4-(4-(4-methylpiperazin-1-yl)piperidin-1-yl)phenyl)amino)-5-methylpyrimidin-4-yl)amino)quinoxalin-5-yl)methane sulfonamide], the GI50 in experiment [1] turned out to be 52 nM; at Ba/F3 EGFR Wild-type, 460 nM; in experiment [2] it was 23 nM; in experiment [3], 58 nM; in experiment [4] it was 24 nM; in experiment [5] it was 103 nM.

Take `COc1cc(N2CCC(N3CCOCC3)CC2)c(C)cc1Nc1ncc(Br)c(Nc2ccc3nccnc3c2NS(C)(=O)=O)n1` [Example A23, N-(6-((5-bromo-2-((2-methoxy-5-methyl-4-(4-morpholinopiperidin-1-yl)phenyl)amino)pyrimidin-4-yl)amino)quinoxalin-5-yl)methanesulfonamide]: the GI50 in experiment [1] worked out at 114 nM; on Ba/F3 EGFR Wild-type it was 416 nM; in experiment [2], 51 nM; in experiment [3], 16 nM; in experiment [4], 41 nM; in experiment [5], 49 nM.

Consider `CCS(=O)(=O)Nc1c(Nc2nc(Nc3cc(C)c(N4CCC(N5CCN(C)CC5)CC4)cc3OC)ncc2Br)ccc2nccnc12` [Example A24, N-(6-((5-bromo-2-((2-methoxy-5-methyl-4-(4-(4-methylpiperazin-1-yl)piperidin-1-yl)phenyl)amino)pyrimidin-4-yl)amino)quinoxalin-5-yl)ethanesulfonamide], for which the GI50 in experiment [1] worked out at 114 nM; on Ba/F3 EGFR Wild-type it was 397 nM; in experiment [2], 49 nM; in experiment [3], 74 nM; in experiment [4], 10 nM; in experiment [5], 13 nM.

On to `CCS(=O)(=O)Nc1c(Nc2nc(Nc3cc(C)c(N4CCC(N5CCN(C)CC5)CC4)cc3OC)ncc2Cl)ccc2nccnc12` [Example A25, N-(6-((5-chloro-2-((2-methoxy-5-methyl-4-(4-(4-methylpiperazin-1-yl)piperidin-1-yl)phenyl)amino)pyrimidin-4-yl)amino)quinoxalin-5-yl)ethanesulfonamide], for which the GI50 in experiment [1] worked out at 112 nM; at Ba/F3 EGFR Wild-type it was 373 nM; in experiment [2] it was 46 nM; in experiment [3] it was 134 nM; in experiment [4], 18 nM; in experiment [5], 34 nM.

For `COc1cc(N2CCC(N3CCN(C)CC3)CC2)c(F)cc1Nc1ncc(Br)c(Nc2ccc3nccnc3c2NS(C)(=O)=O)n1` [Example A27, N-(6-((5-bromo-2-((5-fluoro-2-methoxy-4-(4-(4-methylpiperazin-1-yl)piperidin-1-yl)phenyl)amino)pyrimidin-4-yl)amino)quinoxalin-5-yl)methanesulfonamide], the GI50 in experiment [1] is 184 nM; at Ba/F3 EGFR Wild-type, 183 nM; in experiment [2] it was 101 nM; in experiment [3], 192 nM; in experiment [4], 27 nM; in experiment [5] it was 65 nM.

With `CCc1cc(Nc2ncc(Br)c(Nc3ccc4nccnc4c3NS(C)(=O)=O)n2)c(OC)cc1N1CCC(N2CCOCC2)CC1` [Example A28, N-(6-((5-bromo-2-((5-ethyl-2-methoxy-4-(4-morpholinopiperidin-1-yl)phenyl)amino)pyrimidin-4-yl)amino)quinoxalin-5-yl)methanesulfonamide], the GI50 in experiment [1] is 101 nM; on Ba/F3 EGFR Wild-type it was 318 nM; in experiment [2] it was 36 nM; in experiment [3], 51 nM; in experiment [4] it was 10 nM; in experiment [5], 17 nM.

For `CCc1cc(Nc2ncc(Cl)c(Nc3ccc4nccnc4c3NS(C)(=O)=O)n2)c(OC)cc1N1CCC(N2CCOCC2)CC1` [Example A29, N-(6-((5-chloro-2-((5-ethyl-2-methoxy-4-(4-morpholinopiperidin-1-yl)phenyl)amino)pyrimidin-4-yl)amino)quinoxalin-5-yl)methanesulfonamide], the GI50 in experiment [1] turned out to be 79 nM; on Ba/F3 EGFR Wild-type, 200 nM; in experiment [2], 27 nM; in experiment [3], 69 nM; in experiment [4], 13 nM; in experiment [5] it was 25 nM.
